Experimental data taken from paper PMC8632988, “Inhibition of SYK and cSrc kinases can protect bone and cartilage in preclinical models of osteoarthritis and rheumatoid arthritis” (Scientific Reports, 2021).
Values joined by “and” are separate entries in the source; they are usually repeats but may differ in a detail not shown here. Identical values can stand only once. Like-named read-outs stand apart in the source and are kept apart here.

Assays:
[1] = Pharmacokinetics after single oral administration to rats; type: in vivo, rat; settings: for AUC(0-inf) / Cmax / Tmax / AUC(0-t) / half-life: po; for half-life: read-out: Terminal t1/2, Mean (converted); for AUC: read-out: AUC48
Method: Experiments were performed at ChemPartner, Shanghai, China and approved by Institutional Ethics Committee (IEC) of ChemPartner. Male Wistar 10–12 weeks old rats with body weights of 185–220 g and male New Zealand rabbits with body weights of 2.0–2.3 kg were purchased from Shanghai SLAC Laboratory Animal Co., Ltd. MT-SYK-03 was administered to the three groups of rats (six rats per group) via oral gavage at 10 mL/kg concentration, and in rabbits 5 mL/kg concentration. Blood samples were kept on ice and centrifuged (2000 g, 4 ℃, 5 min) within 15 min post sampling.

[2] = system: SYK-mediated signaling in human B-cell lymphoma cells; experiment: Detection of SYK activity in cells by Western blot; type: cell-based; settings: 1, 3, 10 uM
Method: Western blot was performed at A. N. Bakh Institute of Biochemistry, Russia. Human B-cell lymphoma cells obtained from Russian collection cell cultures (RCCC) were cultured in 5% CO2 humidified atmosphere at 37 °C in RPMI 1640 supplemented with 100 U mL^–1 penicillin/streptomycin and 10% heat inactivated FBS. P3H3 cells (10^6 cells in 1 ml of RPMI media with 5% FBS) were incubated with test compound or vehicle control (DMSO, 1%) for one hour at 37 °C in a 5% CO2-incubator. Then anti-IgM (1 μg/mL) was added to activate B-cell receptors and incubation continued for additional 15 min. After that the cells were washed with cooled PBS buffer and were lysed in 200 μL of ice-cold lysis buffer (62,5 mM Tris–HCl, pH 6.8, 2% w/v SDS, 10% glycerin, 50 mM DTT, 0,01% w/v BPB). Then lysates were sonicated for 20 s in ice, heated to 95–100 °C for 5 min and centrifuged for 5 min. 20 μL of obtained samples were electrophoresed on 10% SDS–polyacrylamide gel (gel blocks: 90 × 60 × 1.5 mm; current intensity: 30 mA, time: 2.5–3 h) and transferred to nitrocellulose membranes (BioRad). Western blotting was carried out according to the Amersham Pharmacia Biotech ECL Western blotting protocol. […]

[3] = male, Wistar, rat, plasma, rats, single oral 30 mg/kg
[4] = male, Wistar, rat, plasma, rats, single oral 100 mg/kg
[5] = male, Wistar, rat, plasma, rats, single oral 200 mg/kg

COc1cc(Nc2ncnc(Nc3cc4c(cn3)NC(=O)C(C)(C)O4)n2)cc(OC)c1OC [MT-SYK-03]
concentration at 2 h ([1]; male, Wistar, rat, plasma, oral, 200 mg/kg, Table S8, 200 mg/kg PO, male Wistar rats, 2 h, mean of Rat#13-18, read-out: Plasma concentration, Mean): 1040 ng/mL
concentration at 4 h ([1]; male, Wistar, rat, plasma, oral, 200 mg/kg, Table S8, 200 mg/kg PO, male Wistar rats, 4 h, mean of Rat#13-18): 725 ng/mL
concentration at 8 h ([1]; male, Wistar, rat, plasma, oral, 200 mg/kg, Table S8, 200 mg/kg PO, male Wistar rats, 8 h, mean of Rat#13-18): 206 ng/mL
concentration at 24 h ([1]; male, Wistar, rat, plasma, oral, 200 mg/kg, Table S8, 200 mg/kg PO, male Wistar rats, 24 h, mean of Rat#13-18): 4.99 ng/mL
concentration at 48 h ([1]; male, Wistar, rat, plasma, oral, 200 mg/kg, Table S8, 200 mg/kg PO, male Wistar rats, 48 h, mean of Rat#13-18, read-out: Plasma concentration, Mean): 5.44 ng/mL
AUC(0-inf) ([1]; male, Wistar, rat, plasma, 30 mg/kg, rats, single oral 30 mg/kg, read-out: AUCinf): 2420 ± 945 ng·h/mL
Cmax ([1]; male, Wistar, rat, plasma, 30 mg/kg, rats, single oral 30 mg/kg, read-out: Cmax): 416 ± 114 ng/mL
Tmax ([1]; male, Wistar, rat, plasma, 30 mg/kg, rats, single oral 30 mg/kg, read-out: Tmax): 1.5 ± 0.548 h
Tmax ([1]; male, Wistar, rat, plasma, 100 mg/kg, Table S6, 100 mg/kg PO, male Wistar rats, plasma, individual Rat#1-6, read-out: Tmax): 2 h
AUC(0-inf) ([1]; male, Wistar, rat, plasma, 100 mg/kg, Table S6, 100 mg/kg PO, male Wistar rats, plasma, mean of Rat#1-6, read-out: AUCINF, Mean): 2420 ng·h/mL
AUC(0-t) ([1]; male, Wistar, rat, plasma, 100 mg/kg, Table S6, 100 mg/kg PO, male Wistar rats, plasma, mean of Rat#1-6, read-out: AUClast, Mean): 2340 ng·h/mL
Cmax ([1]; male, Wistar, rat, plasma, 100 mg/kg, Table S6, 100 mg/kg PO, male Wistar rats, plasma, mean of Rat#1-6, read-out: Cmax, Mean): 416 ng/mL
half-life ([1]; male, Wistar, rat, plasma, 100 mg/kg, Table S6, 100 mg/kg PO, male Wistar rats, plasma, mean of Rat#1-6): 5.53 h
Tmax ([1]; male, Wistar, rat, plasma, 100 mg/kg, Table S6, 100 mg/kg PO, male Wistar rats, plasma, mean of Rat#1-6, read-out: Tmax, Mean): 1.5 h
AUC(0-inf) ([1]; male, Wistar, rat, plasma, 100 mg/kg, Table S7, 100 mg/kg PO, male Wistar rats, plasma, individual Rat#7-12, read-out: AUCINF): 4250 ng·h/mL
AUC(0-t) ([1]; male, Wistar, rat, plasma, 100 mg/kg, Table S7, 100 mg/kg PO, male Wistar rats, plasma, individual Rat#7-12, read-out: AUClast): 4240 ng·h/mL
Cmax ([1]; male, Wistar, rat, plasma, 100 mg/kg, Table S7, 100 mg/kg PO, male Wistar rats, plasma, individual Rat#7-12, read-out: Cmax): 822 ng/mL
Tmax ([1]; male, Wistar, rat, plasma, 100 mg/kg, Table S7, 100 mg/kg PO, male Wistar rats, plasma, individual Rat#7-12, read-out: Tmax): 1 h
AUC(0-inf) ([1]; male, Wistar, rat, plasma, 100 mg/kg, Table S7, 100 mg/kg PO, male Wistar rats, plasma, mean of Rat#7-12, read-out: AUCINF, Mean): 4270 ng·h/mL
AUC(0-t) ([1]; male, Wistar, rat, plasma, 100 mg/kg, Table S7, 100 mg/kg PO, male Wistar rats, plasma, mean of Rat#7-12, read-out: AUClast, Mean): 4260 ng·h/mL
Cmax ([1]; male, Wistar, rat, plasma, 100 mg/kg, Table S7, 100 mg/kg PO, male Wistar rats, plasma, mean of Rat#7-12, read-out: Cmax, Mean): 864 ng/mL
half-life ([1]; male, Wistar, rat, plasma, 100 mg/kg, Table S7, 100 mg/kg PO, male Wistar rats, plasma, mean of Rat#7-12): 4.06 h
Tmax ([1]; male, Wistar, rat, plasma, 100 mg/kg, Table S7, 100 mg/kg PO, male Wistar rats, plasma, mean of Rat#7-12, read-out: Tmax, Mean): 1 h
AUC(0-inf) ([1]; male, Wistar, rat, plasma, 100 mg/kg, rats, single oral 100 mg/kg, read-out: AUCinf): 4270 ± 608 ng·h/mL
Cmax ([1]; male, Wistar, rat, plasma, 100 mg/kg, rats, single oral 100 mg/kg, read-out: Cmax): 864 ng/mL and 1.42 µM
Tmax ([1]; male, Wistar, rat, plasma, 100 mg/kg, rats, single oral 100 mg/kg, read-out: Tmax): 1 h
AUC(0-inf) ([1]; male, Wistar, rat, plasma, 200 mg/kg, Table S8, 200 mg/kg PO, male Wistar rats, plasma, individual Rat#13-18, read-out: AUCINF): 7500 ng·h/mL
AUC(0-t) ([1]; male, Wistar, rat, plasma, 200 mg/kg, Table S8, 200 mg/kg PO, male Wistar rats, plasma, individual Rat#13-18, read-out: AUClast): 7480 ng·h/mL
Cmax ([1]; male, Wistar, rat, plasma, 200 mg/kg, Table S8, 200 mg/kg PO, male Wistar rats, plasma, individual Rat#13-18, read-out: Cmax): 1180 ng/mL
Tmax ([1]; male, Wistar, rat, plasma, 200 mg/kg, Table S8, 200 mg/kg PO, male Wistar rats, plasma, individual Rat#13-18, read-out: Tmax): 2 h
AUC(0-inf) ([1]; male, Wistar, rat, plasma, 200 mg/kg, Table S8, 200 mg/kg PO, male Wistar rats, plasma, mean of Rat#13-18, read-out: AUCINF, Mean): 7320 ng·h/mL
AUC(0-t) ([1]; male, Wistar, rat, plasma, 200 mg/kg, Table S8, 200 mg/kg PO, male Wistar rats, plasma, mean of Rat#13-18, read-out: AUClast, Mean): 7270 ng·h/mL
Cmax ([1]; male, Wistar, rat, plasma, 200 mg/kg, Table S8, 200 mg/kg PO, male Wistar rats, plasma, mean of Rat#13-18, read-out: Cmax, Mean): 1280 ng/mL
half-life ([1]; male, Wistar, rat, plasma, 200 mg/kg, Table S8, 200 mg/kg PO, male Wistar rats, plasma, mean of Rat#13-18): 5.08 h
Tmax ([1]; male, Wistar, rat, plasma, 200 mg/kg, Table S8, 200 mg/kg PO, male Wistar rats, plasma, mean of Rat#13-18, read-out: Tmax, Mean): 1.33 h
AUC(0-inf) ([1]; male, Wistar, rat, plasma, 200 mg/kg, rats, single oral 200 mg/kg, read-out: AUCinf): 7320 ± 1460 ng·h/mL
Cmax ([1]; male, Wistar, rat, plasma, 200 mg/kg, rats, single oral 200 mg/kg, read-out: Cmax): 1280 ng/mL and 2.1 µM
Tmax ([1]; male, Wistar, rat, plasma, 200 mg/kg, rats, single oral 200 mg/kg, read-out: Tmax): 1.33 ± 0.516 h
k el [1, 3]: 4.44e-05 s⁻¹
AUC [1, 3]: 2340 ± 979 ng·h/mL
k el [1, 4]: 5.28e-05 s⁻¹
AUC [1, 4]: 4260 ± 621 ng·h/mL
k el [1, 5]: 4.72e-05 s⁻¹
AUC [1, 5]: 7270 ± 1490 ng·h/mL
Average plasma concentration after administration in rats ([1]; rats, PO): 200 to 700 nM
MRT24 ([1]; rats, single oral 30 mg/kg): 4.26 ± 0.57 h
τ1/2 ([1]; rats, single oral 30 mg/kg): 5.53 ± 2.38 h
MRT24 ([1]; rats, single oral 100 mg/kg): 4.12 ± 0.56 h
τ1/2 ([1]; rats, single oral 100 mg/kg): 4.06 ± 1.49 h
MRT24 ([1]; rats, single oral 200 mg/kg): 4.89 ± 1.63 h
τ1/2 ([1]; rats, single oral 200 mg/kg): 5.08 ± 2.39 h
Anti-IgM induced autophosphorylation of SYK and phosphorylation of CD19, BTK, ERK1/2 and JNK1/2 [2]: dose-dependently inhibited
